Data taken from patent publication US7285555B2, “6-aryl-7-halo-imidazo[1,2-a]pyrimidines as anticancer agents” (Wyeth Holdings Corporation, priority 2003, dated 2007).

Key:
COLO 205 cells = experiment: MTS cytotoxicity test procedure with COLO 205 cells; type: cell-based; conditions: Homo sapiens, 72 h, MTS assay, three days of culture
Method: The MTS assay, which is sold in kit form by Promega (Madison, Wis.; CellTiter 96 AQueous Non-Radioactive Cell Proliferation Assay), is based on the conversion by viable cells, but not by dead cells, of the tetrazolium salt, MTS (3-(4,5-dimethylthiazol-2-yl)-5-(3-carboxymethoxyphenyl)-2-(4-sulphophenyl)-2H-tetrazolium, inner salt), into a water-soluble colored formazan which is detected by spectrophotometry. Compounds are tested at nine concentrations, in order to determine IC50 values. For the test procedure, cells are harvested by trypsinization (or, in the case of non-adherent cells, by simple resuspension), washed, counted and distributed to wells of 96-well flat-bottom microtiter plates at 1000 cells per well in 200 μL of medium. In addition, one row of wells on a separate plate receives cells as above (“time 0” plate). All plates are incubated at 370 in humidified 5% CO2 in air for about 24 hr.
On day 2, compounds for test are diluted and added to wells. Compounds are dissolved in DMSO at 10 mg/mL. For each compound, nine serial 2-fold dilutions are prepared in DMSO. Ten μL of each dilution in DMSO is transferred to 100 μL of medium, mixed well, and then 5 μL of this dilution is transferred in quadruplicate to wells containing cells. The final high concentration of each compound is typically 1-5 μM. Plates are returned to the incubator for three days. At the time of drug addition to the experimental plates, the MTS assay is run on the “time 0” plate. This gives the “time 0 MTS value” which is related to the number of viable cells per well at the time of drug addition.
After three days of culture with test compounds (day 5 overall), the MTS assay is done on all wells of the experimental plates. The absorbance values of the quadruplicate sample wells are averaged and divided by the average of the “time 0” values. The average of control wells without drug, divided by the average “time 0” value, gives the maximal relative increase in MTS color yield due to cell growth during the final three days of culture. The average of control wells with high drug concentration, divided by the “time 0” value, gives the minimal relative color yield for cells that were completely killed. The nine values for each compound are plotted against concentration, and the concentration that produces a relative color yield half way between the maximum and minimum is taken as the IC50 value.
COLO 205 is a human colon carcinoma cell line that is used for comparative testing of the examples of this invention and several reference compounds (Table 1). This line is sensitive to paclitaxel and vincristine.

KB-V1 cells = experiment: SRB cytotoxicity test procedure with KB-V1 cells; type: cell-based, human; conditions: SRB assay; for Ratio VI/KB: IC50 on KB VI cells/IC50 on KB cells
Description: Human cancer cell lines, unless otherwise noted, are obtained from the American Type Culture Collection (Rockville, Md.). The following drug-sensitive parental cell lines, and their derived drug-resistant counterparts, are obtained from the originators as listed: (a) S1 (parental line from a subclone of human colon carcinoma line LS174T) and derived S1-M1-3.2 (herein called S1-M1) which expresses the MXR drug transporter protein, are provided by Dr. L. Greenberger, Wyeth Research (Rabindran, S. K., He, H., Singh, M., Brown, E., Collins, K. I., Annable, T., and Greenberger, L. M. Reversal of a novel multidrug resistance mechanism in human colon carcinoma cells by fumitremorgin C. Cancer Res., 58: 5850-5858,1998); (b) parental HL-60 human promyelocytic leukemia line and derived HL-60/ADR, which expresses the MRP1 drug transporter protein, are provided by Dr. M. Center, University of Kansas (McGrath, T., and Center, M. S. Adriamycin resistance in HL60 cells in the absence of detectable P-glycoprotein. Biochem. Biophys. […] J. Biol. Chem., 261: 7762-7770, 1986) via Dr. L. Greenberger, Wyeth Research.
The SRB standard cytotoxicity assay is done according to previously reported methods (Discafani, C. M., Carroll, M. L., Floyd Jr., M. B. F., Hollander, I. J., Husain, Z., Johnson, B. D., Kitchen, D., May, M. K., Malo, M. S., Minnick Jr., A. A., Nilakantan, R., Shen, R., Wang Y-F., Wissner, A., Greenberger, L. M. Irreversible inhibition of epidermal growth factor receptor tyrosine kinase with in vivo activity by N-[4-[3-bromophenyl)amino]-6-quinaxolinyl]-2-butynamide (CL-387,785). Biochem. Pharmacol., 57: 917-925, 1999). Briefly, cells are plated in 100 μL of medium in 96-well flat-bottom microtiter plates in the morning of day 1 and allowed to adhere to the plates for 2-6 hr. Compounds are serially diluted into medium as 2× stocks and 100 μL of these stocks are added to cells in duplicate. Compounds are incubated with cells for 3 days. At the end of the incubation period the sulforhodamine B (SRB) assay, which measures protein content as an assessment of cell survival, is performed as described previously (Skehan, P., Storeng, R., Scudiero, D., Monks, A., McMahon, J., Vistica, D., Warren, J. T., Bokesch, H., Kenney, S., Boyd, M. R. New calorimetric cytotoxicity assay for anticancer-drug screening. J. Natl. Cancer Inst., 82:1107-1112, 1990) with some modifications. Medium is gently decanted from plates and replaced with 200 μL per well of cold serum-free medium containing a final concentration of 10% trichloroacetic acid. The plates are incubated for 1 hr at 40, washed 5 times in cold distilled water, and air-dried overnight. The fixed cells are stained for 10 min with 80 μL per well of 0.04% SRB solution prepared in 1% glacial acetic acid. Staining solution is decanted, plates are washed 5 times in 1% glacial acetic acid, and then air-dried until completely dry. Stained cell product is dissolved in 150 μL per well of 10 mM Trizma Base with shaking for 20 minutes. Absorbance is read on a Victor V multi-label plate reader (Perkin Elmer, Gaithersburg, Md.).
The KB lines express different amounts of the P-glycoprotein (MDR1) membrane pump which produces resistance to the action of many cytotoxic compounds, including paclitaxel and vincristine. The parental KB line expresses no P-glycoprotein, KB-8-5 expresses moderate levels of the protein, and KB-V1 expresses very high levels.

Row | Structure (SMILES) | IC50 (COLO 205 cells) [nM] | IC50 (KB-V1 cells; Homo sapiens, KB-V1, KB VI cells, means of 2 independent experiments) [nM] | Ratio VI/KB (KB-V1 cells) | Ratio VI/KB (KB-V1 cells; listed as paclitaxel)
1 | CN(C)CCCOc1cc(F)c(-c2c(Cl)nc3nccn3c2C2CCCCCC2)c(F)c1 [Example 6, 3-[4-(7-Chloro-5-cycloheptylimidazo[1,2-a]pyrimidin-6-yl)-3,5-difluorophenoxy]-N,N-dimethylpropan-1-amine] | 45 | – | – | –
2 | CC(=O)O[C@H]1C(=O)[C@@]2(C)[C@H]([C@H](OC(=O)c3ccccc3)[C@]3(O)C[C@H](OC(=O)[C@H](O)[C@@H](NC(=O)c4ccccc4)c4ccccc4)C(C)=C1C3(C)C)[C@]1(OC(C)=O)CO[C@@H]1C[C@@H]2O [Paclitaxel, reference compound] | – | > 3000 | >1360 | > 1,360
